The record followed here is US20240383954A1, “PEPTIDE INHIBITORS OF INTERLEUKIN-23 RECEPTOR AND THEIR USE TO TREAT INFLAMMATORY DISEASES” (Janssen Biotech, Inc., priority 2020, published 2024).

Counter-ions that a name gives are not always drawn. Starred links: 1 amine or outer side, 2 acyl side, 3 side chain; linkers in the order of their positions; H or OH if unused. Positions of bridges follow the written chain, without caps; N, C: chain ends. Non-standard residues stand in square brackets, D forms with d. Residues, ends and D or L forms follow the SMILES beside them. *: point of attachment. Trp(7-Ph) = N[C@@H](Cc1c[nH]c2c(-c3ccccc3)cccc12)C(=O)O; Trp(7-Me) = Cc1cccc2c(C[C@H](N)C(=O)O)c[nH]c12; Abu(4-yl) = O=C([C@H](CC[*:3])N[*:1])[*:2]; 2Nal = N[C@@H](Cc1ccc2ccccc2c1)C(=O)O; AEF = NCCOc1ccc(C[C@H](N)C(=O)O)cc1; αMeF = C[C@](N)(Cc1ccccc1)C(=O)O; Cit = NC(=O)NCCC[C@H](N)C(=O)O; αMeL = CC(C)C[C@](C)(N)C(=O)O; Pen = CC(C)(S)[C@H](N)C(=O)O; αMeK = C[C@](N)(CCCCN)C(=O)O; Ac5c = NC1(C(=O)O)CCCC1; Thp = NC1(C(=O)O)CCOCC1; NHBn = c1ccc(CN*)cc1; Tfa = O=C(C(F)(F)F)*; Butyryl = CCCC(=O)*; X4 = C1CC(N*)CCN1

The target of one assay is T1, IL-23R (Homo sapiens, UniProt Q5VWK5). The assay is described as follows: cell-based. The following applies: PBMC pSTAT3 IC50 (nM), PBMCs from healthy donors, IL-23 5 ng/mL, 30 minutes, phosphorylated STAT3.
T1 sequence (Q5VWK5 24-629): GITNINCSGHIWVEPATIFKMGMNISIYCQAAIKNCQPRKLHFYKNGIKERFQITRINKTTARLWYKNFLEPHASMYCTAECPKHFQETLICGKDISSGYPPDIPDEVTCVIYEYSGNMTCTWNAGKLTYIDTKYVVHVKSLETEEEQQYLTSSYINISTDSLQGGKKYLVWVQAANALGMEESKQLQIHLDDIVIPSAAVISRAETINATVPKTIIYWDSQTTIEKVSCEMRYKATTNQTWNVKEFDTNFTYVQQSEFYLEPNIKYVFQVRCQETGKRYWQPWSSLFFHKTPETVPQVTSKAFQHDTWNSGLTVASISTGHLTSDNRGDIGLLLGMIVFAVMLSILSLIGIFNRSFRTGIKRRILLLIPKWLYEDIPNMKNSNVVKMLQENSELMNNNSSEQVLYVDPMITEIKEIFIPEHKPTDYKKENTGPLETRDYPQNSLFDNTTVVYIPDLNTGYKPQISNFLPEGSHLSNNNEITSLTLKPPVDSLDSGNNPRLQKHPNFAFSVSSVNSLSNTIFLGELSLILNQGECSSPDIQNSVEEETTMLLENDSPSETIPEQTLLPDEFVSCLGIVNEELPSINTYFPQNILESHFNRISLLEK
The term IC50 denotes the concentration that gives 50% inhibition. A high value points to weaker potency in that assay. On to `CCC(=O)N[C@H](CCCNC(=N)N)C(=O)N[C@H]1CCSC[C@@H](C(=O)N[C@@H](Cc2ccc(OCCN)cc2)C(=O)N[C@@H](Cc2ccc3ccccc3c2)C(=O)NC2(C(=O)N[C@@H](CCC(=O)O)C(=O)N[C@@H](CC(N)=O)C(=O)NC3(C(N)=O)CCOCC3)CCOCC2)NC(=O)[C@H](CCC(N)=O)NC(=O)[C@H](Cc2c[nH]c3ccccc23)NC(=O)[C@H]([C@@H](C)O)NC(=O)[C@H](CCC(N)=O)NC1=O` [Compound 2, [Propionic_acid]-[(D)Arg]-[Abu]-Q-T-W-Q-[Cys]-Phe[4-(2-aminoethoxy)]-[2-Nal]-[THP]-E-N-[THP]-NH2], for which the IC50 was found to be 3.3 nM.

As to `CCCC(=O)NCCCC[C@H](NC(=O)C1(NC(=O)[C@H](Cc2ccc3ccccc3c2)NC(=O)[C@H](Cc2ccc(OCCN)cc2)NC(=O)[C@H]2NC(=O)[C@H](CCC(N)=O)NC(=O)[C@H](Cc3c[nH]c4ccccc34)NC(=O)[C@H]([C@@H](C)O)NC(=O)[C@H](CCC(N)=O)NC(=O)[C@@H](NC(=O)[C@@H](CCCNC(=N)N)NC(C)=O)C(C)(C)SSC2(C)C)CCOCC1)C(=O)N[C@@H](CC(N)=O)C(=O)N[C@@H](Cc1ccccc1)C(N)=O` [Compound 58, Ac-[(D)Arg]-[Pen]-Q-T-W-Q-[Pen]-Phe[4-(2-aminoethoxy)]-[2-Nal]-[THP]-[Lys(COPr)]-N-F-NH2] (Ac-[dR][Pen]QTWQ[Pen][AEF][2Nal][Thp]K(Butyryl)NF-NH2; disulfide 2-7), the IC50 was determined as 35 nM.

The compound `CC(=O)NCCCC[C@H](NC(=O)[C@](C)(CCCCN)NC(=O)[C@H](Cc1ccc2ccccc2c1)NC(=O)[C@H](Cc1ccc(OCCN)cc1)NC(=O)[C@H]1NC(=O)[C@H](CCCCNC(=O)C(F)(F)F)NC(=O)[C@H](Cc2c[nH]c3ccccc23)NC(=O)[C@H]([C@@H](C)O)NC(=O)[C@H](CC(N)=O)NC(=O)[C@@H](NC(C)=O)C(C)(C)SSC1(C)C)C(=O)N[C@@H](CC(N)=O)C(=O)NC1(C(N)=O)CCOCC1` [Compound 103, Ac-[Pen]-N-T-W-[Lys(COCF3)]-[Pen]-Phe[4-(2-aminoethoxy)]-[2-Nal]-[a-MeLys]-[Lys(Ac)]-N-[THP]-NH2] yielded an IC50 of 57 nM.

On to `CC(=O)N[C@H](CCCNC(=N)N)C(=O)N[C@H]1CCSC[C@@H](C(=O)N[C@@H](Cc2ccc(OCCN)cc2)C(=O)N[C@@H](Cc2ccc3ccccc3c2)C(=O)NC2(C(=O)N[C@@](C)(CCC(=O)O)C(=O)N[C@@H](CC(N)=O)C(=O)N[C@@](C)(Cc3ccc(F)cc3)C(N)=O)CCOCC2)NC(=O)[C@H](CCC(N)=O)NC(=O)[C@H](Cc2c[nH]c3ccccc23)NC(=O)[C@H]([C@@H](C)O)NC(=O)[C@H](CCC(N)=O)NC1=O` [Compound 36, Ac-[(D)Arg]-[Abu]-Q-T-W-Q-[Cys]-Phe[4-(2-aminoethoxy)]-[2-Nal]-[THP]-[aMeGlu]-N-[aMe(4-F)Phe]-NH2], for which half-maximal inhibition (IC50) was put at 14 nM.

As to `CC(=O)NCCCC[C@H](NC(=O)[C@](C)(CC(C)C)NC(=O)[C@H](Cc1ccc2ccccc2c1)NC(=O)[C@H](Cc1ccc(OCCN)cc1)NC(=O)[C@H]1NC(=O)[C@H](CCCNC(N)=O)NC(=O)[C@H](Cc2c[nH]c3c(C)cccc23)NC(=O)[C@H]([C@@H](C)O)NC(=O)[C@H](CC(N)=O)NC(=O)[C@@H](NC(C)=O)C(C)(C)SSC1(C)C)C(=O)N[C@@H](CC(N)=O)C(=O)N[C@@](C)(Cc1ccccc1)C(N)=O` [Compound 104, Ac-[Pen]-N-T-[W(7-Me)]-[Cit]-[Pen]-Phe[4-(2-aminoethoxy)]-[2-Nal]-[aMeLeu]-[Lys(Ac)]-N-[a-MePhe]-NH2] (Ac-[Pen]NT[Trp(7-Me)][Cit][Pen][AEF][2Nal][αMeL]K(Ac)N[αMeF]-NH2; disulfide 1-6), the half-maximal inhibitory concentration (IC50) was 8.2 nM.

`CC(=O)N[C@H](CCCNC(=N)N)C(=O)N[C@H]1CCSC[C@@H](C(=O)N[C@@H](Cc2ccc(OCCN)cc2)C(=O)N[C@@H](Cc2ccc3ccccc3c2)C(=O)NC2(C(=O)N[C@@](C)(CCC(=O)O)C(=O)N[C@@H](CC(N)=O)C(=O)NC3(C(N)=O)CCOCC3)CCOCC2)NC(=O)[C@H](CCC(N)=O)NC(=O)[C@H](Cc2c[nH]c3ccccc23)NC(=O)[C@H]([C@@H](C)O)NC(=O)[C@H](CCC(N)=O)NC1=O` [Compound 37, Ac-[(D)Arg]-[Abu]-Q-T-W-Q-[Cys]-Phe[4-(2-aminoethoxy)]-[2-Nal]-[THP]-[aMeGlu]-N-[THP]-NH2] displayed a concentration for half-maximal inhibition (IC50) of 11 nM.

As for `CC(=O)NCCCC[C@@H]1NC(=O)[C@H](Cc2c[nH]c3ccccc23)NC(=O)[C@H]([C@@H](C)O)NC(=O)[C@H](CC(N)=O)NC(=O)[C@@H](NC(C)=O)C(C)(C)SSC(C)(C)[C@@H](C(=O)N[C@@H](Cc2ccc(OCCN)cc2)C(=O)N[C@@H](Cc2ccc3ccccc3c2)C(=O)N[C@@](C)(CCCCN)C(=O)N[C@@H](CCCCNC(C)=O)C(=O)N[C@@H](CC(N)=O)C(=O)N[C@@](C)(Cc2ccccc2)C(N)=O)NC1=O` [Compound 98, Ac-[Pen]-N-T-W-[Lys(Ac)]-[Pen]-Phe[4-(2-aminoethoxy)]-[2-Nal]-[a-MeLys]-[Lys(Ac)]-N-[a-MePhe]-NH2], the IC50 came to 15 nM.

`CC(=O)N[C@H](CCCNC(=N)N)C(=O)N[C@@H]1C(=O)N[C@@H](CCC(N)=O)C(=O)N[C@@H]([C@@H](C)O)C(=O)N[C@@H](Cc2c[nH]c3ccccc23)C(=O)N[C@@H](CCC(N)=O)C(=O)N[C@H](C(=O)N[C@@H](Cc2ccc(OCCN)cc2)C(=O)N[C@@H](Cc2ccc3ccccc3c2)C(=O)NC2(C(=O)N[C@@H](CCC(=O)O)C(=O)N[C@@H](CC(N)=O)C(=O)N[C@@H](CC(=O)NCc3ccccc3)C(N)=O)CCOCC2)C(C)(C)SSC1(C)C` [Compound 110, Ac-[(D)Arg]-[Pen]-Q-T-W-Q-[Pen]-Phe[4-(2-aminoethoxy)]-[2-Nal]-[THP]-E-N-[(N-benzyl)Asn]-NH2] (Ac-[dR][Pen]QTWQ[Pen][AEF][2Nal][Thp]END(NHBn)-NH2; disulfide 2-7) displayed a 50% inhibitory concentration (IC50) of 700 nM.

Compound `CC(=O)N[C@H](CCCNC(=N)N)C(=O)N[C@@H]1C(=O)N[C@@H](CCC(N)=O)C(=O)N[C@@H]([C@@H](C)O)C(=O)N[C@@H](Cc2c[nH]c3ccccc23)C(=O)N[C@@H](CCC(N)=O)C(=O)N[C@H](C(=O)N[C@@H](Cc2ccc(OCCN)cc2)C(=O)N[C@@H](Cc2ccc3ccccc3c2)C(=O)NC2(C(=O)N[C@@H](CCC(=O)O)C(=O)N[C@@H](CC(N)=O)C(=O)N[C@@H](CC(=O)NC3CCNCC3)C(N)=O)CCOCC2)C(C)(C)SSC1(C)C` [Compound 127, Ac-[(D)Arg]-[Pen]-Q-T-W-Q-[Pen]-Phe[4-(2-aminoethoxy)]-[2-Nal]-[THP]-E-N-[(N-Pip)Asn]-NH2] (Ac-[dR][Pen]QTWQ[Pen][AEF][2Nal][Thp]END(X4)-NH2; disulfide 2-7) came in with an IC50 of 48 nM.

As to `COc1ccc(C[C@H](NC(=O)[C@H](CC(N)=O)NC(=O)[C@](C)(CCC(=O)O)NC(=O)C2(NC(=O)[C@H](Cc3ccc4ccccc4c3)NC(=O)[C@H](Cc3ccc(OCCN)cc3)NC(=O)[C@@H]3CSCC[C@H](NC(=O)[C@@H](CCCNC(=N)N)NC(C)=O)C(=O)N[C@@H](CCC(N)=O)C(=O)N[C@@H]([C@@H](C)O)C(=O)N[C@@H](Cc4c[nH]c5ccccc45)C(=O)N[C@@H](CCC(N)=O)C(=O)N3)CCOCC2)C(N)=O)cc1OC` [Compound 78, Ac-[(D)Arg]-[Abu]-Q-T-W-Q-[Cys]-Phe[4-(2-aminoethoxy)]-[2-Nal]-[THP]-[aMeGlu]-N-[Phe(3,4-diOMe)]-NH2], the concentration for half-maximal inhibition (IC50) amounted to 31 nM.

`CC(=O)NCCCC[C@@H]1NC(=O)[C@H](Cc2c[nH]c3c(C)cccc23)NC(=O)[C@H]([C@@H](C)O)NC(=O)[C@H](CC(N)=O)NC(=O)[C@@H](NC(=O)[C@@H](CCCNC(=N)N)NC(C)=O)C(C)(C)SSC(C)(C)[C@@H](C(=O)N[C@@H](Cc2ccc(OCCN)cc2)C(=O)N[C@@H](Cc2ccc3ccccc3c2)C(=O)NC2(C(=O)N[C@@H](CCC(=O)O)C(=O)N[C@@H](CC(N)=O)C(=O)N[C@@](C)(Cc3ccccc3)C(N)=O)CCCC2)NC1=O` [Compound 94, Ac-[(D)Arg]-[Pen]-N-T-[W(7-Me)]-[Lys(Ac)]-[Pen]-Phe[4-(2-aminoethoxy)]-[2-Nal]-[Acvc]-E-N-[a-MePhe]-NH2] (Ac-[dR][Pen]NT[Trp(7-Me)]K(Ac)[Pen][AEF][2Nal][Ac5c]EN[αMeF]-NH2; disulfide 2-7) registered an IC50 of 12 nM.

Compound `CC(=O)N[C@H](CCCNC(=N)N)C(=O)N[C@@H]1C(=O)N[C@@H](CCC(N)=O)C(=O)N[C@@H]([C@@H](C)O)C(=O)N[C@@H](Cc2c[nH]c3ccccc23)C(=O)N[C@@H](CCC(N)=O)C(=O)N[C@H](C(=O)N[C@@H](Cc2ccc(OCCN)cc2)C(=O)N[C@@H](Cc2ccc3ccccc3c2)C(=O)NC2(C(=O)N[C@@H](CCCCNC(=O)C(F)(F)F)C(=O)N[C@@H](CC(N)=O)C(=O)N[C@@H](Cc3ccccc3)C(N)=O)CCOCC2)C(C)(C)SSC1(C)C` [Compound 60, Ac-[(D)Arg]-[Pen]-Q-T-W-Q-[Pen]-Phe[4-(2-aminoethoxy)]-[2-Nal]-[THP]-[Lys(COCF3)]-N-F-NH2] (Ac-[dR][Pen]QTWQ[Pen][AEF][2Nal][Thp]K(Tfa)NF-NH2; disulfide 2-7) came in with a concentration for half-maximal inhibition (IC50) of 44 nM.

The next assay addresses T1, IL-23R. The assay is described as follows: cell-based.
Details: not given
`CC(=O)NCCCC[C@@H]1NC(=O)[C@H](Cc2c[nH]c3c(-c4ccccc4)cccc23)NC(=O)[C@H]([C@@H](C)O)NC(=O)[C@H](CCC(N)=O)NC(=O)[C@@H](NC(C)=O)CCSC[C@@H](C(=O)N[C@@H](Cc2ccc(OCCN)cc2)C(=O)N[C@@H](Cc2ccc3ccccc3c2)C(=O)N[C@@](C)(CCCCN)C(=O)N[C@@H](CCCCNC(C)=O)C(=O)N[C@@H](CC(N)=O)C(=O)N[C@@](C)(Cc2ccccc2)C(N)=O)NC1=O` [Compound 67, Ac-[Abu]-Q-T-[W(7-Ph)]-[Lys(Ac)]-[Cys]-Phe[4-(2-aminoethoxy)]-[2-Nal]-[a-MeLys]-[Lys(Ac)]-N-[a-MePhe]-NH2] (Ac-[Abu(4-yl)]QT[Trp(7-Ph)]K(Ac)C[AEF][2Nal][αMeK]K(Ac)N[αMeF]-NH2; thioether 1-6): the midpoint of inhibition, the IC50, lay at 0.00552 µM.

`CC(=O)NCCCC[C@@H]1NC(=O)[C@H](Cc2c[nH]c3c(C)cccc23)NC(=O)[C@H]([C@@H](C)O)NC(=O)[C@H](CC(N)=O)NC(=O)[C@@H](NC(C)=O)C(C)(C)SSC(C)(C)[C@@H](C(=O)N[C@@H](Cc2ccc(OCCN)cc2)C(=O)N[C@@H](Cc2ccc3ccccc3c2)C(=O)N[C@@](C)(CCCCN)C(=O)N[C@@H](CCCCNC(C)=O)C(=O)N[C@@H](CC(N)=O)C(=O)NC(C)(C)C(=O)N[C@H](CC(N)=O)Cc2ccccc2)NC1=O` [Compound 71, Ac-[Pen]-N-T-[W(7-Me)]-[Lys(Ac)]-[Pen]-Phe[4-(2-aminoethoxy)]-[2-Nal]-[a-MeLys]-[Lys(Ac)]-N-[Aib]-[bhPhe]-NH2] returned an IC50 of 0.00339 µM.
